From patent publication US8936941B2, “Compositions useful for cancer detection and treatment, a cancer stem cell model, and methods of production and use thereof” (priority 2008, dated 2015)

Assays:
[1] = system: let-7 family binding sites (similar to KRAS 3' UTR); experiment: KRAS-Luc luciferase reporter gene assay in AsPC-1 cells; format: cell-based, human
Source text: Luciferase Reporter Gene Assay: pLet7a-Luc reporter vector contains a let-7a miRNA specific binding site at the 3′ UTR of the firefly (Photinus pyralis) luciferase gene, pMiR-144-Luc reporter vector containing miR-144 miRNA specific binding site at the 3′UTR of the firefly luciferase gene and KRAS-Luc reporter vector containing specific binding sites for let-7 family members at the 3′UTR of the firefly luciferase gene were obtained from Signosis, Inc. (Sunnyvale, Calif.). Human pancreatic cancer cell lines were transfected with the pLet7a-Luc, pMiR-144-Luc and KRAS-Luc reporter vectors separately with Renilla luciferase expressing plasmid pRL-TK (Promega) along with DCAMKL-1, or scrambled siRNA-using siPORT™ NeoFX™ transfection reagent (Ambion, Inc.). Luciferase activity was determined as per the manufacturer's instructions (Dual Luciferase Reporter Assay System; Promega) using a BioTek Synergy HT (Winooski, Vt.) as described herein above. The activity, normalized to Renilla luciferase activity, is presented as relative luciferase units relative to control with ±SEM values. Assays were performed in triplicate wells, and experiments were repeated 3 times.

[2] = system: HCV subgenomic replicon; experiment: HCV replication in GS5 cells (Huh7.5 with HCV subgenomic replicon); format: cell-based, hepatitis C virus; conditions: 48 hours
Procedure: FIG. 61 illustrates that DCAMKL-1 is required for the HCV replication. A. siRNA against DCAMKL-1 (Si-DCAMKL1, 50 nM and 100 nM) or scrambled siRNA (SCR, 100 nM) were transfected into GS5 cells. Total RNAs were extracted and subjected to real-time quantitative PCR. The levels of HCV and DCAMKL-1 RNAs were considered arbitrary as one unit in untransfected GS5 cells (Cont). Actin mRNA in each sample was used as internal control for PCR. B. Western blot analysis of siRNAs tranfected and untransfected samples as indicated.
Induction of putative stem cell/pluripotency factors by HCV: Normal adult hepatocytes are fully differentiated cells and lack expression of pluripotency factors. However, these cells can be induced to proliferate rapidly after partial hepatectomy and can also be reprogrammed into stem-like cells by forced expression of a cocktail of transcription factors. Thus, the impact of HCV on expression pattern of stem/progenitor cell markers was investigated in GS5 cells, which are derived from hepatoma cell line (Huh7.5) and support constitutive replication of a subgenomic HCV replicon under G418 selection. The replicon expresses HCV nonstructural proteins NS3 through NS5B of the HCV-1a strain and green florescent protein (GFP)-NS5A chimera. Total lysates from parent Huh7.5 and GS5 cells were subjected to Western blot analysis (FIG. 59).
Putative intestinal stem cell marker DCAMKL1 is required for the HCV replication: The eccentric, punctate staining of HCV replication complexes consisting of most of the nonstructural proteins and cellular factors has been a puzzling question. It is known that these replication complexes associate with microtubules in order to replicate the HCV RNA. The DCAMKL1 protein, which binds and polymerizes tubulin into microtubule filaments, is considered as a putative marker for quiescent stem cells in the intestine, and its expression is increased in cancer stem cells. During confocal microscopy, most DCAMKL1 localization was consistently observed in the area containing replication complexes (indicated by NS5A-GFP) and high concentration of microtubules (FIG. 60). The perinuclear co-localization of DCAMKL1 with the NS5A-GFP (indicated by yellow stain) was also observed.

[3] = system: PICSCs; experiment: LIVE/DEAD Viability/Cytotoxicity Assay on PICSCs; format: cell-based, mouse; conditions: 48 hours, single agent
Procedure: This Example is directed to stem cell assays utilizing PICSCs generated in accordance with the presently disclosed and claimed inventive concept(s). The PICSCs were generated as described herein above (i.e., transformation of NIH-3T3 cells with RBM3 gene, followed by transplantation into a nude mouse, then sorting of cells obtained from generated tumors utilizing DCAMKL-1).
The PICSCs were exposed to various compounds/anti-cancer agents, and cell viability assays were then performed using the LIVE/DEAD® Viability/Cytotoxicity Assay from Molecular Probes/Invitrogen (Eugene, Oreg.). The LIVE/DEAD® Viability/Cytotoxicity Assay is an assay that provides a two-color fluorescence cell viability that is based on the simultaneous determination of both live and dead cells.
Briefly, PICSCs cells were grown in a 96 well microtitre plate ([…], Newton, N.C.) to about 40% confluency and treated with anti-cancer agents/compounds for 48 hours. Subsequently, chromogenic substrates Calcein AM and Ethidium homodimer-1 (EthD-1) was added to the cells. Calcein AM is well retained within the live cells, producing uniform green fluorescence in live cells (measured at 515 nM). EthD-1 enters cells with damaged membranes and undergoes an enhancement of fluorescence upon binding to nucleic acids, thereby producing a bright red fluorescence in dead cells (measured at 617 nM). The fluorescence measurement was carried out using a microtitre plate reader (Synergy HT, BIO-TEK, Vinooski, Vt.).
In FIGS. 70-84, the PICSCs were treated with increasing concentrations of various compounds or combinations of compounds for 48 hours, and the data presented therein is represented as a % Dead/Live cells ratio following said treatment. […] Values in each figure are given as average±Standard Error Mean, and asterisks denote statistically significant differences (*p<0.01) compared with control.

si-DCAMKL-1: siRNA targeting the coding region of DCAMKL-1 (NM_004734), sequence GGGAGUGAGAACAAUCUAC (SEQ ID NO:3) (chemistry not given here; listed as Homo sapiens)
luciferase activity (KRAS-Luc, let-7 family binding sites) [1]: dose-dependent reduction
NS5B polymerase level ([2]; Western blot): decreases
HCV RNA level ([2]; siRNA 50 nM and 100 nM): decreases
expression of DCAMKL1 ([2]; siRNA 50 nM and 100 nM): effectively inhibited
PICSC cell death (% Dead/Live cells ratio) [3]: increasing levels of PICSC cell death
